# Measured values taken from ChEMBL document CHEMBL4138253, “Synthesis and Biological Evaluation of a Series of Bile Acid Derivatives as FXR Agonists for Treatment of NASH” (ACS Med Chem Lett, 2017).
# What was measured:
# [1] = Ratio of drug level in liver to plasma in C57BL/6 mouse at 2 mg/kg, po administered as single cassette dose via gavage measured at 3 hrs post dose; type: ADME, organism-based
# [2] = Drug level in C57BL/6 mouse liver at 2 mg/kg, po administered as single cassette dose via gavage measured at 3 hrs post dose by LC-MS/MS analysis; type: ADME, organism-based; details: in vivo
# [3] = biological target: T1, G-protein coupled bile acid receptor 1 (Homo sapiens, UniProt Q8TDU6); assay: Agonist activity at human TGR5 expressed in HEK293 cells assessed as increase in intracellular cAMP level after 1 hr by TR-FRET assay; type: functional, cell-based
# T1 sequence (Q8TDU6 whole entry): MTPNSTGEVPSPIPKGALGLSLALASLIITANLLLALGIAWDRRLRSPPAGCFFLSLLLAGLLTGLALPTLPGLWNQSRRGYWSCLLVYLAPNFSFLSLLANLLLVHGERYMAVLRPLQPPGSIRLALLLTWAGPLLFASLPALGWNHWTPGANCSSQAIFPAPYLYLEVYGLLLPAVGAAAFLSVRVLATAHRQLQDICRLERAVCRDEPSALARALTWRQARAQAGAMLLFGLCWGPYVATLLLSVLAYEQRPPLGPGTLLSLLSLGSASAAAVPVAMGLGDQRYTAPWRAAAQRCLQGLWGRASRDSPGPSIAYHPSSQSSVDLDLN
# [4] = Drug level in C57BL/6 mouse plasma at 2 mg/kg, po administered as single dose via gavage measured at 0.5 hrs post dose by LC-MS/MS analysis; type: ADME, organism-based
# [5] = Drug level in C57BL/6 mouse plasma at 2 mg/kg, po administered as single cassette dose via gavage measured at 3 hrs post dose by LC-MS/MS analysis; type: ADME, organism-based
# [6] = Ratio of drug level in liver to plasma in C57BL/6 mouse at 2 mg/kg, po administered as single cassette dose via gavage measured at 0.5 hrs post dose; type: ADME, organism-based
# [7] = Drug level in C57BL/6 mouse liver at 2 mg/kg, po administered as single cassette dose via gavage measured at 0.5 hrs post dose by LC-MS/MS analysis; type: ADME, organism-based; details: in vivo
# Bile acid receptor [8] = biological target: T2, Bile acid receptor (Homo sapiens, UniProt Q96RI1); assay: Agonist activity at recombinant human GST-tagged FXR LBD (193 to 472 residues) expressed in baculovirus-infected insect cells assessed as recruitment of biotinylated SRC1 peptide measured after 1 hr by Alphascreen assay
# T2 sequence (Q96RI1 whole entry): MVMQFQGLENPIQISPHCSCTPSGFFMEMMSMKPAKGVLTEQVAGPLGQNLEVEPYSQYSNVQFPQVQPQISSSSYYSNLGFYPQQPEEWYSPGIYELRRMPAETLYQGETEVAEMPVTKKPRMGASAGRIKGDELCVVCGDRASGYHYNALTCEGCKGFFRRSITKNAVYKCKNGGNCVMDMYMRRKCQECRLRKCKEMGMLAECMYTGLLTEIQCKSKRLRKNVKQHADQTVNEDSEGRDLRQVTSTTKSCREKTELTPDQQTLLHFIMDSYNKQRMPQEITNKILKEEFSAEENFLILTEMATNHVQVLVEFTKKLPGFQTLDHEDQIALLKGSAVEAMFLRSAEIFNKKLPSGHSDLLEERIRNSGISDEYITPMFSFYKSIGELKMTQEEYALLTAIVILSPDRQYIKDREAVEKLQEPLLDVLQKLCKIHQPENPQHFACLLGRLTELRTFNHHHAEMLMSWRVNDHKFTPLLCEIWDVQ
# [9] = Drug level in C57BL/6 mouse liver at 10 mg/kg, po administered as single dose via gavage measured at 0.5 hrs post dose by LC-MS/MS analysis; type: ADME, organism-based; details: in vivo
# Mus musculus [10] = assay: Cmax in C57BL/6 mouse assessed as tauro-INT-747 level at 10 mg/kg, po administered via gavage; type: ADME, organism-based; design: dose 10 mg/kg, route oral; details: in vivo
# [11] = Drug metabolism in C57BL/6 mouse assessed as ratio of INT-747 level in liver to plasma at 10 mg/kg, po administered as single dose via gavage measured at 0.5 hrs post dose by LC-MS/MS analysis; type: ADME, organism-based; details: other tissue
# [12] = Drug level in C57BL/6 mouse plasma at 10 mg/kg, po administered as single dose via gavage measured at 0.5 hrs post dose by LC-MS/MS analysis; type: ADME, organism-based
# [13] = Drug metabolism in C57BL/6 mouse liver assessed as INT-747 level at 10 mg/kg, po administered as single dose via gavage measured at 3 hrs post dose by LC-MS/MS analysis; type: ADME, organism-based; details: in vivo
# [14] = Ratio of drug level in C57BL/6 mouse liver to plasma at 10 mg/kg, po administered as single dose via gavage measured at 0.5 hrs post dose by LC-MS/MS analysis; type: ADME, organism-based
# [15] = Ratio of drug level in C57BL/6 mouse liver to plasma at 10 mg/kg, po administered as single dose via gavage measured at 3 hrs post dose by LC-MS/MS analysis; type: ADME, organism-based
# [16] = Cmax in C57BL/6 mouse at 10 mg/kg, po administered via gavage; type: ADME, organism-based; design: dose 10 mg/kg, route oral; details: in vivo
# [17] = Tmax in C57BL/6 mouse at 10 mg/kg, po administered via gavage; type: ADME, organism-based; details: in vivo
# Mus musculus [18] = assay: AUC in C57BL/6 mouse assessed as tauro-INT-747 level at 10 mg/kg, po administered via gavage; type: ADME, organism-based; details: in vivo
# Homo sapiens = organism: Homo sapiens; assay: Selectivity ratio of EC50 for recombinant human GST-tagged FXR LBD (193 to 472 residues) expressed in baculovirus-infected insect cells to EC50 for human TGR5 expressed in HEK293 cells
# [19] = Drug metabolism in C57BL/6 mouse assessed as ratio of INT-747 level in liver to plasma at 10 mg/kg, po administered as single dose via gavage measured at 3 hrs post dose by LC-MS/MS analysis; type: ADME, organism-based; details: other tissue
# Mus musculus [20] = assay: Tmax in C57BL/6 mouse assessed as INT-747 level at 10 mg/kg, po administered via gavage; type: ADME, organism-based; details: in vivo
# Mus musculus [21] = assay: Tmax in C57BL/6 mouse assessed as tauro-INT-747 level at 10 mg/kg, po administered via gavage; type: ADME, organism-based; details: in vivo
# Mus musculus [22] = assay: Anti-hepatic steatosis activity in HFD/CCl4-induced non-alcoholic hepatic steatosis C57BL/6 mouse model assessed as reduction in triglyceride level administered once daily via oral gavage for 28 days measured at post last dose by […] assay; type: ADME, organism-based; details: in vivo, 672 h
# Mus musculus [23] = assay: AUC in C57BL/6 mouse assessed as glyco-INT-747 level at 10 mg/kg, po administered via gavage; type: ADME, organism-based; details: in vivo, BLD = below limit of detection
# [24] = AUC in C57BL/6 mouse at 10 mg/kg, po administered via gavage; type: ADME, organism-based; details: in vivo
# Mus musculus [25] = assay: AUC in C57BL/6 mouse assessed as INT-747 level at 10 mg/kg, po administered via gavage; type: ADME, organism-based; details: in vivo
# Mus musculus [26] = assay: Anti-hepatic steatosis activity in HFD/CCl4-induced non-alcoholic hepatic steatosis C57BL/6 mouse model assessed as reduction in hepatic steatosis score administered once daily via oral gavage for 28 days measured at post last dose by hematoxylin-eosin staining based assay; type: ADME, organism-based; details: in vivo, 672 h
# [27] = biological target: T3, Bile acid receptor (Homo sapiens) (UniProt Q96RI1); assay: Agonist activity at recombinant human Gal4-fused FXR expressed in CHO cells measured after 22 hrs by luciferase reporter gene assay relative to CDCA; type: cell-based
# T3 sequence (whole entry): T2 sequence (Q96RI1 whole entry)
# [28] = Drug metabolism in C57BL/6 mouse plasma assessed as INT-747 level at 10 mg/kg, po administered as single dose via gavage measured at 3 hrs post dose by LC-MS/MS analysis; type: ADME, organism-based; details: in vivo
# [29] = Drug level in C57BL/6 mouse liver at 10 mg/kg, po administered as single dose via gavage measured at 3 hrs post dose by LC-MS/MS analysis; type: ADME, organism-based; details: in vivo
# [30] = Drug metabolism in C57BL/6 mouse liver assessed as INT-747 level at 10 mg/kg, po administered as single dose via gavage measured at 0.5 hrs post dose by LC-MS/MS analysis; type: ADME, organism-based; details: in vivo
# Bile acid receptor [31] = biological target: T2, Bile acid receptor; assay: Agonist activity at recombinant human Gal4-fused FXR expressed in CHO cells measured after 22 hrs by luciferase reporter gene assay; type: cell-based
# Mus musculus [32] = assay: Anti-hepatic steatosis activity in HFD/CCl4-induced non-alcoholic hepatic steatosis C57BL/6 mouse model assessed as reduction in liver fibrosis administered once daily via oral gavage for 28 days measured at post last dose by sirus red staining based assay; type: ADME, organism-based; details: in vivo, 672 h
# Mus musculus [33] = assay: Cmax in C57BL/6 mouse assessed as glyco-INT-747 level at 10 mg/kg, po administered via gavage; type: ADME, organism-based; design: dose 10 mg/kg, route oral; details: in vivo, BLD = below limit of detection
# Mus musculus [34] = assay: Cmax in C57BL/6 mouse assessed as INT-747 level at 10 mg/kg, po administered via gavage; type: ADME, organism-based; design: dose 10 mg/kg, route oral; details: in vivo
# [35] = Drug level in C57BL/6 mouse plasma at 10 mg/kg, po administered as single dose via gavage measured at 3 hrs post dose by LC-MS/MS analysis; type: ADME, organism-based
# [36] = biological target: T3, Bile acid receptor (Homo sapiens); assay: Agonist activity at recombinant human GST-tagged FXR LBD (193 to 472 residues) expressed in baculovirus-infected insect cells assessed as recruitment of biotinylated SRC1 peptide measured after 1 hr by Alphascreen assay relative to CDCA
compound,measurement,setting,value
CC[C@H]1[C@@H](O)[C@@H]2[C@H](CC[C@]3(C)[C@@H]([C@H](C)CCc4nnn[nH]4)CC[C@@H]23)[C@@]2(C)CC[C@@H](O)C[C@@H]12,Kp at 3 h,[1],76
same,Drug uptake,[2],1443 nmol/kg
same,EC50,[3],1770 nM
same,concentration at 0.5 h,[4],868 nM
same,concentration at 3 h,[5],19 nM
same,Kp at 0.5 h,[6],7
same,Drug uptake,[7],5693 nmol/kg
same,EC50,Bile acid receptor [8],60 nM
CC[C@H]1[C@@H](O)[C@@H]2[C@H](CC[C@]3(C)[C@@H]([C@H](C)CCC(=O)NS(C)(=O)=O)CC[C@@H]23)[C@@]2(C)CC[C@@H](O)C[C@@H]12,Drug uptake,[9],27920 nmol/kg
same,Cmax,Mus musculus [10],270 nM
same,Kp at 3 h,[1],124
same,Ratio,[11],21
same,concentration at 0.5 h,[12],388 nM
same,Drug uptake,[13],1486 nmol/kg
same,Kp at 0.5 h,[14],53
same,Kp at 3 h,[15],52
same,Cmax,[16],610 nM
same,Tmax,[17],30 min
same,AUC,Mus musculus [18],5.416 µM·h
same,Ratio EC50,Homo sapiens,14
same,Ratio,[19],12
same,Tmax,Mus musculus [20],30 min
same,Drug uptake,[2],1361 nmol/kg
same,EC50,[3],700 nM
same,Tmax,Mus musculus [21],480 min
same,Activity,Mus musculus [22],Dose-dependent effect
same,AUC,Mus musculus [23],Bld
same,AUC,[24],1.19 µM·h
same,AUC,Mus musculus [25],0.216 µM·h
same,Activity,Mus musculus [26],Dose-dependent effect
same,Efficacy,[27],191%
same,concentration,[28],126 nM
same,concentration at 0.5 h,[4],136 nM
same,Drug uptake,[29],15560 nmol/kg
same,Drug uptake,[30],2863 nmol/kg
same,EC50,Bile acid receptor [31],50 nM
same,concentration at 3 h,[5],15 nM
same,Activity,Mus musculus [32],Dose-dependent effect
same,Cmax,Mus musculus [33],Bld
same,Cmax,Mus musculus [34],446 nM
same,Kp at 0.5 h,[6],53
same,Drug uptake,[7],7183 nmol/kg
same,concentration at 3 h,[35],298 nM
CC[C@H]1[C@@H](O)[C@@H]2[C@H](CC[C@]3(C)[C@@H]([C@H](C)CCc4cc(O)no4)CC[C@@H]23)[C@@]2(C)CC[C@@H](O)C[C@@H]12,Kp at 3 h,[1],43
same,Efficacy,[36],121%
same,Ratio EC50,Homo sapiens,17
same,Drug uptake,[2],257 nmol/kg
same,EC50,[3],520 nM
same,concentration at 0.5 h,[4],43 nM
same,concentration at 3 h,[5],6 nM
same,Kp at 0.5 h,[6],44
same,Drug uptake,[7],1896 nmol/kg
same,EC50,Bile acid receptor [8],30 nM
